According to publication PMC9109600 (ACS chemical biology, 2021):

Target: T1, Guanine deaminase (GDA) (Homo sapiens, UniProt Q9Y2T3)
T1 sequence (Q9Y2T3 1-454): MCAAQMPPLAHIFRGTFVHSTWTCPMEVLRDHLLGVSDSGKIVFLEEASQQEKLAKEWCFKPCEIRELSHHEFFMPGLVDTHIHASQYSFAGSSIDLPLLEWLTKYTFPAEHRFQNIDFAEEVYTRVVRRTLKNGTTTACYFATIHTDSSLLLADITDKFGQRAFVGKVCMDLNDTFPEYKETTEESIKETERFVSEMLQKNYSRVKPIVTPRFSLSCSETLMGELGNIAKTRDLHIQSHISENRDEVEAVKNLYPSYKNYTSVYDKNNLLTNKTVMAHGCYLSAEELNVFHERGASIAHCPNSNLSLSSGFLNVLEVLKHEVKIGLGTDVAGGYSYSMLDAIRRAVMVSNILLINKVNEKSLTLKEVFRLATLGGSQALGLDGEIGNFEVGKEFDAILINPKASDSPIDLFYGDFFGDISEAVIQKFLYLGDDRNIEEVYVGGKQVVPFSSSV
Assay: real-time fluorescence inhibition assay with tzGN as substrate
Format: biochemical

Row | SMILES | IC50 [µM]
1 | NC(=O)c1[nH]cnc1N [AICA, 5-aminoimidazole-4-carboxamide] | 100
2 | NC(=O)c1nscc1N [ATCA, 4-aminoisothiazole-3-carboxamide] | 80
3 | O=C(O)c1c[nH]cn1 [ICA, 4-imidazolecarboxylic acid] | 2000
